Test results reported in PubChem BioAssay AID602435 (Southern Research Specialized Biocontainment Screening …, 2012).
Where “and” joins values, the source holds several entries; their conditions need not be identical. Equal values may be shown once. Records with an inconclusive call do not appear. Calls of active or inactive are those of the source. The rule behind the calls is not given here.

Legend:
[1] = M. tuberculosis growth inhibition, dose response, 7H9 medium, purified and synthesized samples, set 9 (AID 602435); conditions: Mycobacterium tuberculosis H37Rv growth, 7H9 medium
[2] = tested on: Mycobacterium tuberculosis H37Rv growth, 7H9 medium; test: as above; conditions: for IC50: measured here: IC50 growth inhibition replicates

SMILES: O=C(NCc1ccc(C(=O)N2CCN(c3ccccc3)CC2)cc1)NC1CCCCC1
- growth inhibition ([1]; at 100 µM (top of the series)): 2.95% (inactive)

SMILES: CCOc1ccc(NC(=O)c2ccc(CNc3c(N4CCCC4)c(=O)c3=O)cc2)cc1
- growth inhibition ([1]; at 100 µM (top of the series)): -10% (inactive)

SMILES: CCOC(=O)CSc1ncnc2c1cnn2-c1ccccc1
- IC90 [2]: 39.5 µM
- IC50 [2]: 15.3 µM

SMILES: O=C(c1ccc(CNc2c(N3CCCC3)c(=O)c2=O)cc1)N1CC=C(c2ccccc2)CC1
- IC50 [2]: 3.22 µM and 2.96 µM

SMILES: O=C(c1ccc(CNc2c(N3CCOCC3)c(=O)c2=O)cc1)N1CCC(c2ccccc2)CC1
- IC90 [2]: 16 µM
- IC50 [2]: 3.43 µM

SMILES: CC1CC(C)CN(C(=O)c2ccc(CNc3c(N4CCCC4)c(=O)c3=O)cc2)C1 (stereo not given)
- IC50 [2]: 8.84 µM

SMILES: O=C(CSc1nc2c(c(=O)[nH]1)CCC2)NC1CCCCC1
- IC90 [2]: 3.92 µM
- IC50 [2]: 2.97 µM

SMILES: O=C(C1CCC(CNc2c(N3CCCCC3)c(=O)c2=O)CC1)N1CCCCC1 (stereo not given)
- IC50 [2]: 25.2 µM

SMILES: CC(=O)c1ccc(NC(=O)c2ccc(CNc3c(N4CCOCC4)c(=O)c3=O)cc2)cc1
- IC50 [2]: 50 µM

SMILES: O=C(CSc1nc2ccccc2c(=O)[nH]1)NC1CCOCC1
- IC90 [2]: 26 µM
- IC50 [2]: 23.1 µM

SMILES: O=C(CSc1nc2c(c(=O)[nH]1)CN(Cc1ccccc1)CC2)NC1CCCCC1
- growth inhibition ([1]; at 100 µM (top of the series)): -0.3% (inactive)

SMILES: CC1CC(C)CN(C(=O)C2CCC(CNc3c(N4CCCCC4)c(=O)c3=O)CC2)C1 (stereo not given)
- IC50 [2]: 13.7 µM and 29 µM

SMILES: CC1CCCN(C(=O)c2ccc(CNc3c(N4CCCCC4)c(=O)c3=O)cc2)C1 (stereo not given)
- IC50 [2]: 3.7 µM

SMILES: O=C(c1ccc(CNc2c(N3CCCC3)c(=O)c2=O)cc1)N1CCN(c2ccccc2)CC1
- IC50 [2]: 62.3 µM

SMILES: Cc1cccc(N2CCN(C(=O)c3ccc(CNc4c(N5CCC(C)CC5)c(=O)c4=O)cc3)CC2C)c1 (stereo not given)
- IC90 [2]: 41.3 µM
- IC50 [2]: 26.9 µM

SMILES: O=C(CSc1nc2ccccc2c(=O)[nH]1)NC1CCCCC1
- IC90 [2]: < 0.29 µM
- IC50 [2]: 0.195 µM

SMILES: O=C(CSc1nc2c(c(=O)[nH]1)CCCC2)NC1CCCCC1
- IC90 [2]: 3.12 µM
- IC50 [2]: 1.97 µM

SMILES: COC(=O)C(Cc1ccccc1)NC(=O)CSc1nc2ccccc2c(=O)[nH]1 (stereo not given)
- growth inhibition ([1]; at 100 µM (top of the series)): 4.82% (inactive)

SMILES: COC(=O)CSc1ncnc2c1cnn2-c1ccc(C)cc1C
- IC90 [2]: 3.65 µM
- IC50 [2]: 2.57 µM

SMILES: CCC(C)NC(=O)CSc1nc2ccccc2c(=O)[nH]1 (stereo not given)
- IC90 [2]: 16.9 µM
- IC50 [2]: 15.7 µM

SMILES: CCOC(=O)CSc1ncnc2c1cnn2-c1ccc(C)cc1C
- IC90 [2]: 3.65 µM
- IC50 [2]: 2.42 µM

SMILES: O=C(c1ccc(CNc2c(N3CCCC3)c(=O)c2=O)cc1)N1CCC(c2ccccc2)CC1
- IC50 [2]: 79.7 µM

SMILES: CC1CCN(C(=O)c2ccc(CNc3c(N4CCCC4)c(=O)c3=O)cc2)CC1
- IC50 [2]: 8.48 µM

SMILES: COCCNC(=O)CSc1nc2ccccc2c(=O)[nH]1
- growth inhibition ([1]; at 100 µM (top of the series)): -5.73% (inactive)

SMILES: O=C(NCCc1ccc(Cl)cc1)c1ccc(CNc2c(N3CCOCC3)c(=O)c2=O)cc1
- IC90 [2]: 19.1 µM
- IC50 [2]: 10.5 µM and 12.5 µM

SMILES: O=C(NCc1ccc(C(=O)N2CCC(c3ccccc3)CC2)cc1)NC1CCCCC1
- IC90 [2]: 88.7 µM
- IC50 [2]: 69.1 µM

SMILES: O=C(NCc1ccc(C(=O)N2CCC(c3ccccc3)CC2)cc1)Nc1ccc(Cl)cc1
- IC90 [2]: 94 µM
- IC50 [2]: 74.4 µM

SMILES: COc1ccc(N2CCN(C(=O)c3ccc(CNc4c(N5CCCC(C)C5)c(=O)c4=O)cc3)CC2)cc1 (stereo not given)
- IC90 [2]: 46.9 µM
- IC50 [2]: 28.1 µM

SMILES: COc1ccc(N2CCN(C(=O)c3ccc(CNC(=O)NCc4ccc(Cl)cc4)cc3)CC2)cc1
- growth inhibition ([1]; at 100 µM (top of the series)): 3.4% (inactive)

SMILES: O=C(c1ccc(CNc2c(N3CCCC3)c(=O)c2=O)cc1)N1CCc2ccccc2C1
- IC50 [2]: 5.06 µM

SMILES: O=C(c1ccc(CNc2c(N3CCOCC3)c(=O)c2=O)cc1)N1CCN(c2ccccc2)CC1
- IC50 [2]: 3.45 µM

SMILES: CC1CCCN(c2c(NCc3ccc(C(=O)N4CC=C(c5ccccc5)CC4)cc3)c(=O)c2=O)C1 (stereo not given)
- IC90 [2]: 11.8 µM
- IC50 [2]: 7.54 µM

SMILES: COc1ccc(N2CCN(C(=O)c3ccc(CNc4c(N5CCOCC5)c(=O)c4=O)cc3)CC2)cc1
- IC50 [2]: 6.35 µM and 6.09 µM

SMILES: CC(C)CCNC(=O)CSc1nc2ccccc2c(=O)[nH]1
- IC90 [2]: 0.78 µM
- IC50 [2]: 0.696 µM

SMILES: CC1CCCN(C(=O)C2CCC(CNc3c(N4CCCCC4)c(=O)c3=O)CC2)C1 (stereo not given)
- IC50 [2]: 26.2 µM

SMILES: O=C(NCCc1ccc(Cl)cc1)C1CCC(CNc2c(N3CCCCC3)c(=O)c2=O)CC1 (stereo not given)
- IC50 [2]: 37.1 µM

SMILES: Cc1cccc(N2CCN(C(=O)c3ccc(CNc4c(N5CCC(C)CC5)c(=O)c4=O)cc3)CC2)c1C
- IC50 [2]: 42.1 µM

SMILES: CC(C)CCNC(=O)CSc1nc2c(c(=O)[nH]1)CCCCC2
- IC50 [2]: 99.6 µM

SMILES: CC(C)OC(=O)CSc1ncnc2c1cnn2-c1ccccc1
- IC50 [2]: 28.7 µM

SMILES: CCOC(=O)N1CCC(Nc2c(Nc3cccc(CC)c3)c(=O)c2=O)CC1
- growth inhibition ([1]; at 50 µM (top of the series)): 3.52% (inactive)

SMILES: O=C(c1ccc(CNc2c(N3CCOCC3)c(=O)c2=O)cc1)N1CC=C(c2ccccc2)CC1
- IC90 [2]: 6.81 µM
- IC50 [2]: 0.957 µM

SMILES: CC(C)CCNC(=O)CSc1nc2c(c(=O)[nH]1)CCCC2
- IC90 [2]: 6.12 µM
- IC50 [2]: 4.43 µM
